Source: US20230322776A1, “NEW ARYL-PYRIDO-PYRIMIDIN-ONE DERIVATIVES” (Hoffmann-La Roche Inc., priority 2020, published 2023)
Each block holds one compound with its values, some of them ahead of it.

What was measured:
BRAF = BRAF (Homo sapiens, UniProt P15056); test: KD BRAF (Table 1; no method described); assay type: binding
[1] = system: A375 cells (V600E mutated BRAF), ERK phospho-T202/Y204; test: HTRF assay for P-ERK determination in A375 cells (BRAF inhibition); assay type: cell-based; settings: Homo sapiens, A-375, 1 hour drug incubation, DMSO = 100%, 10 μM Dabrafenib = 0%, top concentration 10 μM, read-out: P-ERK_A375: IC50
In short: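 A375 cells (V600E BRAF), 8000/well, treated 1 h with compounds at 0.001–10 μM final in duplicate; lysed and phospho-ERK (Thr202/Tyr204) read by HTRF at 665/620 nm after overnight RT incubation. Blank-subtracted ratios normalized to DMSO (100%) and 10 μM dabrafenib (0%); IC50 from sigmoidal fit.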

[2] = system: HCT116 cells (WT BRAF), ERK phospho-T202/Y204; test: HTRF assay for P-ERK determination in HCT116 cells (BRAF activation, paradox); assay type: cell-based; settings: for EC50: Homo sapiens, HCT-116, HCT116 cells, 1 hour drug incubation, activation relative to maximum Dabrafenib-mediated activation (100%), top concentration 10 μM, read-out: P-ERK_HCT-116: EC50—50PCT; for Fold Selectivity HCT-116 EC50-50/ A375: ratio of P-ERK HCT-116 EC50-50PCT to P-ERK A375 IC50
In short: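 HCT116 (WT BRAF) cells, 8000/well in DMEM + 10% FBS, treated 1 h with compound at 0.001–10 μM in duplicate; lysed, then HTRF antibodies for ERK phospho-T202/Y204, read after overnight dark incubation at room temperature. Blank-subtracted ratio normalized to DMSO (0%) and peak dabrafenib signal (100%); sigmoidal or bell-shaped fit gives % activation.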

BRAF V660E = BRAF V660E (Homo sapiens, UniProt P15056, V600E); test: KD BRAF V660E (Table 1; no method described); assay type: binding
BRAF V660E, sequence (P15056 2-766 V600E): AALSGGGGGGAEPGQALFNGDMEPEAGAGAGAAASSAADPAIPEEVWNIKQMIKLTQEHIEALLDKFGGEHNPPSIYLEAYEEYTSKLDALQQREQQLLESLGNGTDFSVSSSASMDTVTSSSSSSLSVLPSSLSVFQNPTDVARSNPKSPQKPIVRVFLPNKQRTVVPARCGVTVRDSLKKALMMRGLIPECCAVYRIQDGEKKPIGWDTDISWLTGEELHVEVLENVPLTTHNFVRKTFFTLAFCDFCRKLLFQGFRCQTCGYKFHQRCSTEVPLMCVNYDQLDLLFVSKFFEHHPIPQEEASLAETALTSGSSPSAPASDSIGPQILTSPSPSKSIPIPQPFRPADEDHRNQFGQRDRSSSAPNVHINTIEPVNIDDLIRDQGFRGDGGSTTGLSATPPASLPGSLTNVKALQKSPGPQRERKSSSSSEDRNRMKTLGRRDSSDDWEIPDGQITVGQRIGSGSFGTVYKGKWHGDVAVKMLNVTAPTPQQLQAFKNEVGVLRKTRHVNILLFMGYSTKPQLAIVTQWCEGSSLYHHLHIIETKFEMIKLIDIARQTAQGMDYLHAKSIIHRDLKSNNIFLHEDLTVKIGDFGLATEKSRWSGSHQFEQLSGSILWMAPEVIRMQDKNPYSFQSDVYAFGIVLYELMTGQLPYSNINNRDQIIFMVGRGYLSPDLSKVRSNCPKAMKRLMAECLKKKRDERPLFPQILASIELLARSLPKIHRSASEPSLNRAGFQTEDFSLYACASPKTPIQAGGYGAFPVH

BRAF, sequence (P15056 whole entry): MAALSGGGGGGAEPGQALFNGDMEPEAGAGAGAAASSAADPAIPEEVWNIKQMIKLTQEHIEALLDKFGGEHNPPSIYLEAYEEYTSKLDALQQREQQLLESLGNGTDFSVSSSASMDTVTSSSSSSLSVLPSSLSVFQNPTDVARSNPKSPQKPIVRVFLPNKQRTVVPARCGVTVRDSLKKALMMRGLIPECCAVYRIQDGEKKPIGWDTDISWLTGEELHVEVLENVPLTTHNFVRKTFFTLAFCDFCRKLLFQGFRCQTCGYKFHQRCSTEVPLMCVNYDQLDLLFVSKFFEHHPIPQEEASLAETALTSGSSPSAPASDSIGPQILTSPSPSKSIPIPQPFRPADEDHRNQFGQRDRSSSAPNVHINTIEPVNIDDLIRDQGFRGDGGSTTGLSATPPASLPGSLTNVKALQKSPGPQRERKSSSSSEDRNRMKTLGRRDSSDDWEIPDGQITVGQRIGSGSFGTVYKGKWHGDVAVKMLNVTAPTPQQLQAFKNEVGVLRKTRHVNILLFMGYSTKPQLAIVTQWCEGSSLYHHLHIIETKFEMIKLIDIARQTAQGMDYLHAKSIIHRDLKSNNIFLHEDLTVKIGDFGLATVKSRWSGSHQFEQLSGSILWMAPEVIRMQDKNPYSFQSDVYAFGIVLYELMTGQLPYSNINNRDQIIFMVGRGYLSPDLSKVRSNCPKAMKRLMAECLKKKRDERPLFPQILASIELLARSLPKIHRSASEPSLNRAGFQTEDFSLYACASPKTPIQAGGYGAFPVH

Structure (SMILES): Cn1c(=O)c(-c2c(F)ccc(NS(=O)(=O)N3CC[C@@H](F)C3)c2F)cc2cnc(NCCOCCOCCO)nc21 [Example 4, (3R)-N-[2,4-difluoro-3-[2-[2-[2-(2-hydroxyethoxy)ethoxy]ethylamino]-8-methyl-7-oxopyrido[2,3-d]pyrimidin-6-yl]phenyl]-3-fluoropyrrolidine-1-sulfonamide]
Kd (BRAF): 39.9 nM
IC50 [1]: 47.4 nM
EC50 [2]: ≥ 10000 nM
Fold Selectivity HCT-116 EC50-50/ A375 [2]: >211.0
Kd (BRAF V660E): 99 nM

Structure (SMILES): Cn1c(=O)c(-c2c(F)ccc(NS(=O)(=O)N3CC[C@@H](F)C3)c2F)cc2cnc(NCCCC(=O)OC(C)(C)C)nc21 [Example 3, tert-butyl 4-[[6-[2,6-difluoro-3-[[(3R)-3-fluoropyrrolidin-1-yl]sulfonylamino]phenyl]-8-methyl-7-oxopyrido[2,3-d]pyrimidin-2-yl]amino]butanoate]
Kd (BRAF): 15.1 nM
IC50 [1]: 13.1 nM
EC50 [2]: 917 nM
Fold Selectivity HCT-116 EC50-50/ A375 [2]: 69.8
Kd (BRAF V660E): 47.4 nM

Structure (SMILES): CNCCCNc1ncc2cc(-c3c(F)ccc(NS(=O)(=O)N4CC[C@@H](F)C4)c3F)c(=O)n(C)c2n1.Cl [Example 16, (3R)-N-[2,4-difluoro-3-[8-methyl-2-[3-(methylamino)propylamino]-7-oxopyrido[2,3-d]pyrimidin-6-yl]phenyl]-3-fluoropyrrolidine-1-sulfonamide hydrochloride]
Kd (BRAF): 148 nM
IC50 [1]: 687 nM
EC50 [2]: ≥ 10000 nM
Fold Selectivity HCT-116 EC50-50/ A375 [2]: 14.6
Kd (BRAF V660E): 296 nM

Structure (SMILES): CCN(C)S(=O)(=O)Nc1ccc(F)c(-c2cc3cnc(NCCOCCOCCO)nc3n(C)c2=O)c1F [Example 9, 6-[3-[[ethyl(methyl)sulfamoyl]amino]-2,6-difluorophenyl]-2-[2-[2-(2-hydroxyethoxy)ethoxy]ethylamino]-8-methyl-7-oxopyrido[2,3-d]pyrimidine]
Kd (BRAF): 136 nM
IC50 [1]: 153 nM
EC50 [2]: ≥ 10000 nM
Fold Selectivity HCT-116 EC50-50/ A375 [2]: >65.4
Kd (BRAF V660E): 417 nM

Now from value to compound:

Kd (BRAF): 7.1 nM
IC50 [1]: 184 nM
EC50 [2]: ≥ 10000 nM
Fold Selectivity HCT-116 EC50-50/ A375 [2]: >54.4
Kd (BRAF V660E): 20.8 nM
Structure (SMILES): CC(=O)N1CC(Nc2ncc3cc(-c4c(F)ccc(NS(=O)(=O)N5CC[C@@H](F)C5)c4F)c(=O)n(C)c3n2)C1 [Example 22, (3R)-N-[3-[2-[(1-acetylazetidin-3-yl)amino]-8-methyl-7-oxopyrido[2,3-d]pyrimidin-6-yl]-2,4-difluorophenyl]-3-fluoropyrrolidine-1-sulfonamide]

Kd (BRAF): 26.6 nM
IC50 [1]: 176 nM
EC50 [2]: 5920 nM
Fold Selectivity HCT-116 EC50-50/ A375 [2]: 33.7
Kd (BRAF V660E): 56.6 nM
Structure (SMILES): Cn1c(=O)c(-c2c(F)ccc(NS(=O)(=O)N3CC[C@@H](F)C3)c2F)cc2cnc(NCCc3cnc(CC(=O)OC(C)(C)C)nc3)nc21 [Example 48, tert-butyl 2-[5-[2-[[6-[2,6-difluoro-3-[[(3R)-3-fluoropyrrolidin-1-yl]sulfonylamino]phenyl]-8-methyl-7-oxopyrido[2,3-d]pyrimidin-2-yl]amino]ethyl]pyrimidin-2-yl]acetate]

Kd (BRAF): 96.7 nM
IC50 [1]: 64.2 nM
EC50 [2]: 3530 nM
Fold Selectivity HCT-116 EC50-50/ A375 [2]: 55.0
Kd (BRAF V660E): 224 nM
Structure (SMILES): Cn1c(=O)c(-c2c(F)ccc(NS(=O)(=O)N3CC[C@@H](F)C3)c2F)cc2cnc(NCCc3ccc(CC(=O)OC(C)(C)C)cc3)nc21 [Example 46, tert-butyl 2-[4-[2-[[6-[2,6-difluoro-3-[[(3R)-3-fluoropyrrolidin-1-yl]sulfonylamino]phenyl]-8-methyl-7-oxopyrido[2,3-d]pyrimidin-2-yl]amino]ethyl]phenyl]acetate]

Kd (BRAF): 10.2 nM
IC50 [1]: 36.7 nM
EC50 [2]: 1650 nM
Fold Selectivity HCT-116 EC50-50/ A375 [2]: 44.9
Kd (BRAF V660E): 27 nM
Structure (SMILES): CC(=O)N1CCC(CCNc2ncc3cc(-c4c(F)ccc(NS(=O)(=O)N5CC[C@@H](F)C5)c4F)c(=O)n(C)c3n2)CC1 [Example 20, (3R)—N-[3-[2-[2-(1-acetylpiperidin-4-yl)ethylamino]-8-methyl-7-oxopyrido[2,3-d]pyrimidin-6-yl]-2,4-difluorophenyl]-3-fluoropyrrolidine-1-sulfonamide]

Kd (BRAF): 13.4 nM
IC50 [1]: ≥ 10000 nM
EC50 [2]: ≥ 10000 nM
Fold Selectivity HCT-116 EC50-50/ A375 [2]: 1.0
Kd (BRAF V660E): 41.3 nM
Structure (SMILES): Cl.NCCOCCOCCn1c(=O)c(-c2c(F)ccc(NS(=O)(=O)N3CC[C@@H](F)C3)c2F)cc2cnc(NCC3CC3)nc21 [Example 39, (3R)—N-[3-[8-[2-[2-(2-aminoethoxy)ethoxy]ethyl]-2-(cyclopropylmethylamino)-7-oxopyrido[2,3-d]pyrimidin-6-yl]-2,4-difluorophenyl]-3-fluoropyrrolidine-1-sulfonamide; hydrochloride]

Kd (BRAF): 145 nM
IC50 [1]: 3810 nM
EC50 [2]: ≥ 10000 nM
Fold Selectivity HCT-116 EC50-50/ A375 [2]: 2.6
Kd (BRAF V660E): 408 nM
Structure (SMILES): Cl.O=c1c(-c2c(F)ccc(NS(=O)(=O)N3CC[C@@H](F)C3)c2F)cc2cnc(NCC3CC3)nc2n1C1CCNC1 (mixture of isomers) [Example 40, (3R)-N-[3-[2-(cyclopropylmethylamino)-7-oxo-8-[(3RS)-pyrrolidin-3-yl]pyrido[2,3-d]pyrimidin-6-yl]-2,4-difluorophenyl]-3-fluoropyrrolidine-1-sulfonamide hydrochloride]
